Article PMC8286840, “Identifying SARS-CoV-2 antiviral compounds by screening for small molecule inhibitors of Nsp3 papain-like protease” (Biochemical Journal, 2021)
Counter-ions that a name gives are not always drawn. Like-named read-outs stand apart in the source and are kept apart here.

Columns and labels:
[1] = molecular target: T1, SARS-CoV-2 PLpro (nsp3 1564–1878) (Severe acute respiratory syndrome coronavirus 2, UniProt P0DTD1); experiment: biochemical; parameters: FRET-quenched peptide (Pro3) cleavage by PLpro, 10 min pre-incubation, slope over 20 min, normalised to no-compound control; conditions: low concentration screen, read-out: % of control remaining
[2] = molecular target: T1, SARS-CoV-2 PLpro (nsp3 1564–1878); experiment: biochemical; parameters: FRET-quenched peptide (Pro3) cleavage by PLpro, 10 min pre-incubation, slope over 20 min, normalised to no-compound control; conditions: high concentration screen, read-out: % of control remaining

SMILES: COc1ccc(-c2ccc3c(N4CCOCC4)nc(N4C[C@@H](C)O[C@@H](C)C4)nc3n2)cc1CO [KU0063794]
- remaining activity at 1.25 µM ([1]; Well no.=2899): 105%
- remaining activity at 3.75 µM ([2]; Well no.=2899): 103%

SMILES: COc1cc(Nc2nc3ccccc3nc2NS(=O)(=O)c2ccc(NC(=O)c3ccc(C)c(OC)c3)cc2)cc(OC)c1 [PI3K-IN-1]
- remaining activity at 1.25 µM ([1]; Well no.=8600): 102%
- remaining activity at 3.75 µM ([2]; Well no.=8600): 97.8%

SMILES: C[C@@H](O)CCC[C@H](O)/C=C/[C@H]1[C@H](O)CC(=O)[C@@H]1C/C=C\CCCC(=O)O [19(R)-Hydroxy-prostaglandin E2]
- remaining activity at 1.25 µM ([1]; Well no.=4533): 91.3%
- remaining activity at 3.75 µM ([2]; Well no.=4533): 88.8%

SMILES: CCN(CC)CCOC(=O)C(Cc1cccc2ccccc12)CC1CCCO1 (centres unmarked) [Naftidrofuryl (oxalate)]
- remaining activity at 1.25 µM ([1]; Well no.=7050): 98%
- remaining activity at 3.75 µM ([2]; Well no.=7050): 93.7%

SMILES: CN(C)[C@@H]1CCc2[nH]c3ccc(NC(=O)c4ccc(F)cc4)cc3c2C1 [LY 344864]
- remaining activity at 1.25 µM ([1]; Well no.=7289): 93.4%
- remaining activity at 3.75 µM ([2]; Well no.=7289): 91.2%

SMILES: Nc1nc(Nc2ccc(S(N)(=O)=O)cc2)nn1C(=S)Nc1c(F)cccc1F [Cdk1/2 Inhibitor III]
- remaining activity at 1.25 µM ([1]; Well no.=2368): 99.3%
- remaining activity at 3.75 µM ([2]; Well no.=2368): 102%

SMILES: CCCCCCCCCCCC(=O)O [Dodecanoic acid]
- remaining activity at 1.25 µM ([1]; Well no.=4256): 101%
- remaining activity at 3.75 µM ([2]; Well no.=4256): 94.8%

SMILES: CN(C)CCOc1ccc(-c2nc(-c3ccncc3)c(-c3ccc4c(c3)CC/C4=N\O)[nH]2)cc1 [SB590885]
- remaining activity at 1.25 µM ([1]; Well no.=2749): 101%
- remaining activity at 3.75 µM ([2]; Well no.=2749): 99.9%

SMILES: c1ccc2nc(C3=NCCN3)ccc2c1 [BU224 hydrochloride]
- remaining activity at 1.25 µM ([1]; Well no.=39): 102%
- remaining activity at 3.75 µM ([2]; Well no.=39): 105%

SMILES: CCOC(OCC)P(=O)(O)CCCNCc1ccc(Cl)c(Cl)c1 [3-[(3,4-dichlorobenzyl)amino]propyl(diethoxymethyl)phosphinic acid]
- remaining activity at 1.25 µM ([1]; Well no.=6020): 98.7%
- remaining activity at 3.75 µM ([2]; Well no.=6020): 93.6%

SMILES: CC(C(=O)O)c1ccc2c(c1)Cc1cccnc1O2 (centres unmarked) [Pranoprofen]
- remaining activity at 1.25 µM ([1]; Well no.=2139): 98.7%
- remaining activity at 3.75 µM ([2]; Well no.=2139): 99.8%

SMILES: O=C(O)/C=C/c1c[nH]c2ccccc12 [3-Beta-Indoleacrylic acid]
- remaining activity at 1.25 µM ([1]; Well no.=3773): 99%
- remaining activity at 3.75 µM ([2]; Well no.=3773): 101%

SMILES: CC1(C)S[C@@H]2[C@H](NC(=O)[C@H](NC(=O)N3CCNC3=O)c3ccccc3)C(=O)N2[C@H]1C(=O)O [Azlocillin (sodium salt)]
- remaining activity at 1.25 µM ([1]; Well no.=7454): 94.9%
- remaining activity at 3.75 µM ([2]; Well no.=7454): 101%

SMILES: Cc1nnc(NC(=O)c2nc(S(=O)(=O)Cc3ccc(F)cc3)ncc2Cl)s1 [PK11007]
- remaining activity at 1.25 µM ([1]; Well no.=6834): 86.8%
- remaining activity at 3.75 µM ([2]; Well no.=6834): 87.8%

SMILES: CN1CCC(CNc2ccc3ncc(-c4cccc(OC(F)(F)F)c4)n3n2)CC1 [SGI-1776 free base]
- remaining activity at 1.25 µM ([1]; Well no.=4818): 88.4%
- remaining activity at 3.75 µM ([2]; Well no.=4818): 86.2%

SMILES: Cc1cc(NC(=O)NCCN2CCC(O)(Cc3ccccc3)CC2)c2ccccc2n1 [Palosuran]
- remaining activity at 1.25 µM ([1]; Well no.=7915): 105%
- remaining activity at 3.75 µM ([2]; Well no.=7915): 92.5%

SMILES: NCCCNCCSP(=O)(O)O [Amifostine]
- remaining activity at 1.25 µM ([1]; Well no.=115): 103%
- remaining activity at 1.25 µM ([1]; Well no.=2115): 99.3%
- remaining activity at 3.75 µM ([2]; Well no.=115): 104%
- remaining activity at 3.75 µM ([2]; Well no.=2115): 102%

SMILES: COc1cc2c(cc1OC)CN(C(=O)[C@@H](NCc1ccncc1)C(C)(C)C)CC2 [TCS-OX2-29]
- remaining activity at 1.25 µM ([1]; Well no.=6993): 107%
- remaining activity at 3.75 µM ([2]; Well no.=6993): 101%

SMILES: NCCCCN(Cc1nc2ccccc2[nH]1)[C@H]1CCCc2cccnc21 [Mavorixafor (trihydrochloride)]
- remaining activity at 1.25 µM ([1]; Well no.=8167): 109%
- remaining activity at 3.75 µM ([2]; Well no.=8167): 103%

SMILES: N[C@@H](Cc1c[nH]c2ccccc12)C(=O)O [L-Tryptophan]
- remaining activity at 1.25 µM ([1]; Well no.=1471): 96.7%
- remaining activity at 1.25 µM ([1]; Well no.=7361): 100%
- remaining activity at 3.75 µM ([2]; Well no.=1471): 98.2%
- remaining activity at 3.75 µM ([2]; Well no.=7361): 100%

SMILES: CCCCCCCCCCCCC(O)C(=O)O (centres unmarked) [2-Hydroxymyristic acid]
- remaining activity at 1.25 µM ([1]; Well no.=4353): 103%
- remaining activity at 3.75 µM ([2]; Well no.=4353): 102%

SMILES: O=C1CSC(c2cccc(Br)c2)N1c1cc(Cl)ccc1O (centres unmarked) [CK-548]
- remaining activity at 1.25 µM ([1]; Well no.=6054): 97.5%
- remaining activity at 3.75 µM ([2]; Well no.=6054): 96.3%

SMILES: NNc1nncc2ccccc12 [Hydralazine hydrochloride]
- remaining activity at 1.25 µM ([1]; Well no.=560): 95.6%
- remaining activity at 3.75 µM ([2]; Well no.=560): 95.5%
